Results reported in ChEMBL document CHEMBL4507282, “Data for DCP probe BI-1950” (2021).

What was measured:
[1] = system: Tyrosine-protein kinase ABL1 (Homo sapiens), P00519 [E255K]; settings: Compound concentration 1000.0 nM
[2] = system: Tyrosine-protein kinase ABL1 (Homo sapiens), P00519 [H396P]; settings: Compound concentration 1000.0 nM
[3] = target: Tyrosine-protein kinase ABL1 (Homo sapiens) (UniProt P00519); settings: Compound concentration 1000.0 nM
[4] = target: Activin receptor type-2B (Homo sapiens) (UniProt Q13705); settings: Compound concentration 1000.0 nM
[5] = target: 5'-AMP-activated protein kinase catalytic subunit alpha-2 (Homo sapiens) (UniProt P54646); settings: Compound concentration 1000.0 nM
[6] = system: Serine/threonine-protein kinase B-raf (Homo sapiens), P15056 [V600E]; settings: Compound concentration 1000.0 nM
[7] = target: Mitotic checkpoint serine/threonine-protein kinase BUB1 (Homo sapiens) (UniProt O43683); settings: Compound concentration 1000.0 nM
[8] = target: Cyclin-dependent kinase 3 (Homo sapiens) (UniProt Q00526); settings: Compound concentration 1000.0 nM
[9] = target: Cyclin-dependent kinase 5 (Homo sapiens) (UniProt Q00535); settings: Compound concentration 1000.0 nM
[10] = target: Ephrin type-A receptor 8 (Homo sapiens) (UniProt P29322); settings: Compound concentration 1000.0 nM
[11] = target: Ephrin type-B receptor 6 (Homo sapiens) (UniProt O15197); settings: Compound concentration 1000.0 nM
[12] = target: Mitogen-activated protein kinase 15 (Homo sapiens) (UniProt Q8TD08); settings: Compound concentration 1000.0 nM
[13] = target: Serine/threonine-protein kinase/endoribonuclease IRE1 (Homo sapiens) (UniProt O75460); settings: Compound concentration 1000.0 nM
[14] = target: Tyrosine-protein kinase Fer (Homo sapiens) (UniProt P16591); settings: Compound concentration 1000.0 nM
[15] = target: Vascular endothelial growth factor receptor 1 (Homo sapiens) (UniProt P17948); settings: Compound concentration 1000.0 nM
[16] = system: Receptor-type tyrosine-protein kinase FLT3 (Homo sapiens), P36888 [UNDEFINED MUTATION]; settings: Compound concentration 1000.0 nM
[17] = system: Receptor-type tyrosine-protein kinase FLT3 (Homo sapiens), P36888 [R834Q]; settings: Compound concentration 1000.0 nM
[18] = target: Tyrosine-protein kinase Fyn (Homo sapiens) (UniProt P06241); settings: Compound concentration 1000.0 nM
[19] = system: eIF-2-alpha kinase GCN2 (Homo sapiens), Q9P2K8 [S808G]; settings: Compound concentration 1000.0 nM
[20] = target: G protein-coupled receptor kinase 3 (Homo sapiens) (UniProt P35626); settings: Compound concentration 1000.0 nM
[21] = target: Glycogen synthase kinase-3 beta (Homo sapiens) (UniProt P49841); settings: Compound concentration 1000.0 nM
[22] = system: Mast/stem cell growth factor receptor Kit (Homo sapiens), P10721 [L576P]; settings: Compound concentration 1000.0 nM
[23] = system: Mast/stem cell growth factor receptor Kit (Homo sapiens), P10721 [V559D,V654A]; settings: Compound concentration 1000.0 nM
[24] = target: Mast/stem cell growth factor receptor Kit (Homo sapiens) (UniProt P10721); settings: Compound concentration 1000.0 nM
[25] = target: Serine/threonine-protein kinase LATS1 (Homo sapiens) (UniProt O95835); settings: Compound concentration 1000.0 nM
[26] = target: MAP kinase-activated protein kinase 2 (Homo sapiens) (UniProt P49137); settings: Compound concentration 1000.0 nM
[27] = target: Dual specificity mitogen-activated protein kinase kinase 3 (Homo sapiens) (UniProt P46734); settings: Compound concentration 1000.0 nM
[28] = target: Mitogen-activated protein kinase kinase kinase 11 (Homo sapiens) (UniProt Q16584); settings: Compound concentration 1000.0 nM
[29] = target: Serine/threonine-protein kinase MRCK alpha (Homo sapiens) (UniProt Q5VT25); settings: Compound concentration 1000.0 nM
[30] = target: Serine/threonine-protein kinase 24 (Homo sapiens) (UniProt Q9Y6E0); settings: Compound concentration 1000.0 nM
[31] = target: Serine/threonine-protein kinase Nek3 (Homo sapiens) (UniProt P51956); settings: Compound concentration 1000.0 nM
[32] = target: Mitogen-activated protein kinase kinase kinase 14 (Homo sapiens) (UniProt Q99558); settings: Compound concentration 1000.0 nM
[33] = target: Cyclin-dependent kinase 16 (Homo sapiens) (UniProt Q00536); settings: Compound concentration 1000.0 nM
[34] = system: Phosphatidylinositol 4,5-bisphosphate 3-kinase catalytic subunit alpha isoform (Homo sapiens), P42336 [H1047Y]; settings: Compound concentration 1000.0 nM
[35] = target: cGMP-dependent protein kinase 1 (Homo sapiens) (UniProt Q13976); settings: Compound concentration 1000.0 nM
[36] = target: Interferon-induced, double-stranded RNA-activated protein kinase (Homo sapiens) (UniProt P19525); settings: Compound concentration 1000.0 nM
[37] = target: Ribosomal protein S6 kinase alpha-2 (Homo sapiens) (UniProt Q15349); settings: Compound concentration 1000.0 nM
[38] = target: Uncharacterized serine/threonine-protein kinase SBK3 (Homo sapiens) (UniProt P0C264); settings: Compound concentration 1000.0 nM
[39] = target: Serine/threonine-protein kinase Sgk2 (Homo sapiens) (UniProt Q9HBY8); settings: Compound concentration 1000.0 nM
[40] = target: Serine/threonine-protein kinase Sgk3 (Homo sapiens) (UniProt Q96BR1); settings: Compound concentration 1000.0 nM
[41] = target: TGF-beta receptor type-2 (Homo sapiens) (UniProt P37173); settings: Compound concentration 1000.0 nM
[42] = target: Serine/threonine-protein kinase ULK1 (Homo sapiens) (UniProt O75385); settings: Compound concentration 1000.0 nM
[43] = target: Serine/threonine-protein kinase WNK1 (Homo sapiens) (UniProt Q9H4A3); settings: Compound concentration 1000.0 nM
[44] = target: 5-hydroxytryptamine receptor 5A (Homo sapiens) (UniProt P47898); settings: Compound concentration 10.0 uM
[45] = target: Histamine H4 receptor (Homo sapiens) (UniProt Q9H3N8); settings: Compound concentration 10.0 uM

Chain of Tyrosine-protein kinase Fyn (Homo sapiens) (P06241 2-537 limits assumed): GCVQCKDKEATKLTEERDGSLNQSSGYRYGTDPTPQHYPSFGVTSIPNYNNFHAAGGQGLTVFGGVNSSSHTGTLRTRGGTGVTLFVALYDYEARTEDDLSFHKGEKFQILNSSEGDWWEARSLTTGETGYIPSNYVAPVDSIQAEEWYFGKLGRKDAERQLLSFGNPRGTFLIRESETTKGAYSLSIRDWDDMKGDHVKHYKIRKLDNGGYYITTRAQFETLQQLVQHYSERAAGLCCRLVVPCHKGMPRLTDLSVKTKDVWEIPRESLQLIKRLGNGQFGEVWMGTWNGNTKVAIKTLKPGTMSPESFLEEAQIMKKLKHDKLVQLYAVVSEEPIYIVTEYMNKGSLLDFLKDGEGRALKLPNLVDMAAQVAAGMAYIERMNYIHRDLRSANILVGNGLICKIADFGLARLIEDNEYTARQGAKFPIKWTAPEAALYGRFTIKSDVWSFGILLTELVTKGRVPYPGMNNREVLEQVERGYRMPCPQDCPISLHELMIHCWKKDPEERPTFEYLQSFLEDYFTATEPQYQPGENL
Chain of Serine/threonine-protein kinase WNK1 (Homo sapiens) (Q9H4A3 whole entry, looked up): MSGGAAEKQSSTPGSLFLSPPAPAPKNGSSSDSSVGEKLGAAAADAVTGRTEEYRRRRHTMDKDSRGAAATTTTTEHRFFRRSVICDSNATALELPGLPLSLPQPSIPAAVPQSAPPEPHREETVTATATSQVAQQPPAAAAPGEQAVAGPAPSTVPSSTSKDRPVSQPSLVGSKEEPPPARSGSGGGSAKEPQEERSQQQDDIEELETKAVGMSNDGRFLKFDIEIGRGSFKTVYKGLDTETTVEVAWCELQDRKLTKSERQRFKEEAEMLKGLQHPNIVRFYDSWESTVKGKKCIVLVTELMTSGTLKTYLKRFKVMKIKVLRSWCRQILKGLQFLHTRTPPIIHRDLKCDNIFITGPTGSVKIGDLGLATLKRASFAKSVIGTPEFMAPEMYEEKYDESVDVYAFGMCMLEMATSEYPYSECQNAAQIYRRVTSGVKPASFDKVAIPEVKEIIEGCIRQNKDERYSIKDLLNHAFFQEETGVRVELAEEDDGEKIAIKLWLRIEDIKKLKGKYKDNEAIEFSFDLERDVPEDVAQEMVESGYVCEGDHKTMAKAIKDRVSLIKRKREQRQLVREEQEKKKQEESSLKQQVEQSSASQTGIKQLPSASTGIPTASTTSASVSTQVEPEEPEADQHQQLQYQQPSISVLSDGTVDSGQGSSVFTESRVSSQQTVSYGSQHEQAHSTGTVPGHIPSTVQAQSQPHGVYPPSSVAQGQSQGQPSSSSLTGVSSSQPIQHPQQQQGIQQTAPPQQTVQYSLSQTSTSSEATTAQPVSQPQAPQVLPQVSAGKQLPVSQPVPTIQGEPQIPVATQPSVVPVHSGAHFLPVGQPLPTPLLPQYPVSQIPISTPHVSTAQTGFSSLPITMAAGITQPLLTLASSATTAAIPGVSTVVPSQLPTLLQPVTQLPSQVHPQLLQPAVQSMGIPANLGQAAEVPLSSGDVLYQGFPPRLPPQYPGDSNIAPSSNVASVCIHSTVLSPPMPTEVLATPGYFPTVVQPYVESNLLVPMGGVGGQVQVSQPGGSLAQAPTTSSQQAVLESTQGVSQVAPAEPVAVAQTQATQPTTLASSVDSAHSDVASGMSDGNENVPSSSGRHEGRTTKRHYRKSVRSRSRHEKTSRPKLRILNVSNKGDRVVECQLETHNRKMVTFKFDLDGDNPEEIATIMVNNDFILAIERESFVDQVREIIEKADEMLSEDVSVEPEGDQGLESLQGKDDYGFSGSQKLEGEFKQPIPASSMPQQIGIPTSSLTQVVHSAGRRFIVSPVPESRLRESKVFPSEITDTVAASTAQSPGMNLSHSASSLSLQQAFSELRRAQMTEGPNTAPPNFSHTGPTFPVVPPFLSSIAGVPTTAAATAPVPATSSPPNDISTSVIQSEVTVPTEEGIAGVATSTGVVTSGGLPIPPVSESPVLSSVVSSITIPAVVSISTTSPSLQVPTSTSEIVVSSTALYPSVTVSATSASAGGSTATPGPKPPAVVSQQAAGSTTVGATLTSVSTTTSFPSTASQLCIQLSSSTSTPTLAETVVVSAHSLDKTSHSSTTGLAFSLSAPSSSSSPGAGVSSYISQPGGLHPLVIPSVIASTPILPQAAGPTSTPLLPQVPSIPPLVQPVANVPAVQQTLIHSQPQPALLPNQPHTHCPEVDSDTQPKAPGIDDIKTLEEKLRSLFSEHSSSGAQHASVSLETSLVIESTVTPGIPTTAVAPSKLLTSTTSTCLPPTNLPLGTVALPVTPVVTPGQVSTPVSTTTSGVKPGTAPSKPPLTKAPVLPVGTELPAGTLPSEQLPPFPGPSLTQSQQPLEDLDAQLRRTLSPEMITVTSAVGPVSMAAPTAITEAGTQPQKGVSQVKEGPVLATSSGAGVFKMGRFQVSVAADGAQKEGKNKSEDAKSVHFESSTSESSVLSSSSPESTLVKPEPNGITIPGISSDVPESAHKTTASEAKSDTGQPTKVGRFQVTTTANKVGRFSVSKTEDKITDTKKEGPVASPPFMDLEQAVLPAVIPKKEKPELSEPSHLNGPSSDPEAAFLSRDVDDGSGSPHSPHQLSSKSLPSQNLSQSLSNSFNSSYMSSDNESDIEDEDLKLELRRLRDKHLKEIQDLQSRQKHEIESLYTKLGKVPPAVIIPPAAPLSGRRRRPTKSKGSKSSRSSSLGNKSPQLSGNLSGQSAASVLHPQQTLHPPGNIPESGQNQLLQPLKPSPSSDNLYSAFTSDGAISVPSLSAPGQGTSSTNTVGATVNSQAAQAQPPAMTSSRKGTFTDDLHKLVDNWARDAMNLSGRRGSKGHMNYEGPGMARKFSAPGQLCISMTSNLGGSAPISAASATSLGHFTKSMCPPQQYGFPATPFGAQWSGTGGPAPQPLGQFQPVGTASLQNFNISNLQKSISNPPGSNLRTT
Chain of 5-hydroxytryptamine receptor 5A (Homo sapiens) (P47898 whole entry): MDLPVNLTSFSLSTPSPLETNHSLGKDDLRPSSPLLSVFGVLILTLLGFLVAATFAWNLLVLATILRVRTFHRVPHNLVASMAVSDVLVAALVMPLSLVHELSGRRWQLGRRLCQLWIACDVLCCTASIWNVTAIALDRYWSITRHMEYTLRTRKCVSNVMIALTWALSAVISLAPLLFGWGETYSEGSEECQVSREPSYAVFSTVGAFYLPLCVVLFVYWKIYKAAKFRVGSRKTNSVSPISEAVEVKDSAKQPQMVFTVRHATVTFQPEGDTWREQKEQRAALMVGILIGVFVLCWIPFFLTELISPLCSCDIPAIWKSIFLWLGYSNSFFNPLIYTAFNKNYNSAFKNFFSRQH
Chain of TGF-beta receptor type-2 (Homo sapiens) (P37173 whole entry): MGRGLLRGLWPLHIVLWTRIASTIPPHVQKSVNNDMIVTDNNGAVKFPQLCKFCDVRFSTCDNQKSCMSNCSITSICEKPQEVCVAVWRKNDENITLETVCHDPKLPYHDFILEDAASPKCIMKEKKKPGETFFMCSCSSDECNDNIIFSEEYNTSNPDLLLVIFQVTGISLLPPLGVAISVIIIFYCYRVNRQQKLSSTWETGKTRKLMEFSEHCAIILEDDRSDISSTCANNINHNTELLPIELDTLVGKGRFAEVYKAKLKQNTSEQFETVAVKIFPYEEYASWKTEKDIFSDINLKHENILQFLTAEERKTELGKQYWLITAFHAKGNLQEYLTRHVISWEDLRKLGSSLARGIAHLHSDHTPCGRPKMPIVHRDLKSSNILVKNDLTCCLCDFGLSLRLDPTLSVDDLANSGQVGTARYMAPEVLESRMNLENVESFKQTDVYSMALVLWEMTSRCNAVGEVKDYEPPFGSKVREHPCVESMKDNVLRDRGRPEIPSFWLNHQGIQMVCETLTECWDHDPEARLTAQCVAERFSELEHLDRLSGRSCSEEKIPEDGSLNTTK
Chain of Mast/stem cell growth factor receptor Kit (Homo sapiens) (P10721 whole entry): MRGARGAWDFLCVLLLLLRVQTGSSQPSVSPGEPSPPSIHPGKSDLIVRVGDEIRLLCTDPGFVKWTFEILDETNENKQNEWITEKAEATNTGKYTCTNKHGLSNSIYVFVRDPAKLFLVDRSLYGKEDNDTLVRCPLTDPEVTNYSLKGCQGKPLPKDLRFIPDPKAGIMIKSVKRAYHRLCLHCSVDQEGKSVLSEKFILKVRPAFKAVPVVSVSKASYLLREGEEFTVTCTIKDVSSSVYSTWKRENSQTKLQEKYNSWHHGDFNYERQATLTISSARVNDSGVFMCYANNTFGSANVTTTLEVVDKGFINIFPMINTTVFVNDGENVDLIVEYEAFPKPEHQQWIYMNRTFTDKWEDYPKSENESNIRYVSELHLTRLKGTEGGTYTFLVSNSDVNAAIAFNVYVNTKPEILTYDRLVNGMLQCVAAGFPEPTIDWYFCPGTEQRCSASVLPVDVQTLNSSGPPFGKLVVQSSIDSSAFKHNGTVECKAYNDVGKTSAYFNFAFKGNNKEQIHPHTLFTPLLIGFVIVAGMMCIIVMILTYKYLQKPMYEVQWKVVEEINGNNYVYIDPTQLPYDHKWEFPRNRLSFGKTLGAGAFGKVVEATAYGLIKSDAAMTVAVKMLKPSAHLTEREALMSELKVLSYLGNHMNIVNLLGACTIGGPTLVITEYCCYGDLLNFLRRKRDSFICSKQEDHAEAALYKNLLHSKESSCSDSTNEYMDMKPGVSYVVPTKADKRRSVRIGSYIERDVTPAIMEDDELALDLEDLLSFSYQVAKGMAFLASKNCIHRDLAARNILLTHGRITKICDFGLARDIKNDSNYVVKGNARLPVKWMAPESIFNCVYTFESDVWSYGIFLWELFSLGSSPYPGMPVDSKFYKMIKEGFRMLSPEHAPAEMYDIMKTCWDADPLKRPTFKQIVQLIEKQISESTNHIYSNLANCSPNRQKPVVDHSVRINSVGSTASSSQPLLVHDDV
Chain of Mast/stem cell growth factor receptor Kit (Homo sapiens), P10721 [L576P] (P10721 whole entry L576P): as the sequence (P10721 whole entry) above, with L576P counted along it
Chain of Mast/stem cell growth factor receptor Kit (Homo sapiens), P10721 [V559D,V654A] (P10721 whole entry V559D/V654A): as the sequence (P10721 whole entry) above, with V559D, V654A counted along it

C[C@H](NC(=O)c1cnc2n1[C@](C)(Cc1ccc(C#N)cc1)C(=O)N2c1cc(Cl)c(F)c(Cl)c1)C(=O)NC1(c2ccccn2)CC1 [BI 1950]
residual activity [1]: 93%
residual activity [2]: 83%
residual activity [3]: 99%
residual activity [4]: 100%
residual activity [5]: 100%
residual activity [6]: 100%
residual activity [7]: 100%
residual activity [8]: 100%
residual activity [9]: 100%
residual activity [10]: 100%
residual activity [11]: 100%
residual activity [12]: 100%
residual activity [13]: 96%
residual activity [14]: 100%
residual activity [15]: 100%
residual activity [16]: 100%
residual activity [17]: 90%
residual activity [18]: 70%
residual activity [19]: 100%
residual activity [20]: 100%
residual activity [21]: 100%
residual activity [22]: 83%
residual activity [23]: 100%
residual activity [24]: 100%
residual activity [25]: 100%
residual activity [26]: 100%
residual activity [27]: 80%
residual activity [28]: 100%
residual activity [29]: 100%
residual activity [30]: 100%
residual activity [31]: 100%
residual activity [32]: 100%
residual activity [33]: 100%
residual activity [34]: 100%
residual activity [35]: 62%
residual activity [36]: 34%
residual activity [37]: 94%
residual activity [38]: 100%
residual activity [39]: 94%
residual activity [40]: 100%
residual activity [41]: 100%
residual activity [42]: 100%
residual activity [43]: 100%
inhibition [44]: 6.14%
inhibition [45]: 9.55%

C[C@@]1(Cc2ccc(C#N)cc2)C(=O)N(c2cc(Cl)cc(Cl)c2)c2ncc(C(=O)NC3(c4nc(C5CCC5)no4)CC3)n21 [BI 9446]
residual activity [1]: 95%
residual activity [2]: 100%
residual activity [3]: 100%
residual activity [4]: 100%
residual activity [5]: 100%
residual activity [6]: 100%
residual activity [7]: 100%
residual activity [8]: 100%
residual activity [9]: 100%
residual activity [10]: 100%
residual activity [11]: 100%
residual activity [12]: 100%
residual activity [13]: 82%
residual activity [14]: 100%
residual activity [15]: 99%
residual activity [16]: 100%
residual activity [17]: 100%
residual activity [18]: 89%
residual activity [19]: 100%
residual activity [20]: 100%
residual activity [21]: 100%
residual activity [22]: 100%
residual activity [23]: 85%
residual activity [24]: 100%
residual activity [25]: 96%
residual activity [26]: 100%
residual activity [27]: 89%
residual activity [28]: 100%
residual activity [29]: 100%
residual activity [30]: 93%
residual activity [31]: 100%
residual activity [32]: 100%
residual activity [33]: 97%
residual activity [34]: 100%
residual activity [35]: 100%
residual activity [36]: 56%
residual activity [37]: 99%
residual activity [38]: 100%
residual activity [39]: 100%
residual activity [40]: 100%
residual activity [41]: 99%
residual activity [42]: 100%
residual activity [43]: 99%
inhibition [44]: 2.14%
inhibition [45]: 27.6%
